pIC50: −log10 of the molar value. Read-outs that look alike come from different tables or passages of the source.
How the values were obtained:
[1] = biological target: Beta Secretase enzyme (BACE) (Homo sapiens, UniProt P56817); assay: In vitro enzymatic BACE FRET (fluorescence resonance energy transfer) assay; format: biochemical; conditions: average IC50, enzyme assay; read-out: BACE 1 FRET assay
Method: In Vitro Enzymatic Bace Fret (Fluorescence Resonance Energy Transfer) Assay (Enzyme Assay Data in the Example Table I)
The assay buffer used in this screen is 0.05 M acetate, pH 4.2, 10% DMSO final, 100 uM genapol (which is a nonionic detergent, below its Critical Micelle Concentration). […] This assay is effectively started by the addition of FRET substrate (50 nM) and the combination is incubated for one hour. The FRET assay is terminated with by addition of Tris buffer, which raises the pH to neutrality, and the fluorescence is determined. The FRET substrate is a peptide with commercially available fluorophore and quencher, on opposite sides of the BACE cleavage site.

[2] = test system: Aβ40 in conditioned medium of cells stably expressing Amyloid Precursor Protein (APP); assay: In vitro BACE cell-based assay (Aβ40 in conditioned medium, sandwich ELISA); conditions: read-out: HEK cell assay
Method: In Vitro BACE Cell-Based Assay
The cell-based assay measures inhibition or reduction of Aβ40 in conditioned medium of test compound treated cells expressing amyloid precursor protein.
Cells stably expressing Amyloid Precursor Protein (APP) were plated at a density of 40K cells/well in 96 well plates (Costar). The cells were cultivated for 24 hours at 37° C. and 5% CO2 in DMEM supplemented with 10% FBS. The test compounds were then added to cells in 10-point dose response concentrations with the starting concentration being either 100 μM or 10 μM. The compounds were diluted from stock solutions in DMSO and the final DMSO concentration of the test compounds on cells was 0.1%. […] The IC50 of the compound was calculated from the percent of control or percent inhibition of Aβ 40 as a function of the concentration of the test compound.
The sandwich ELISA to detect Aβ 40 was performed in 96 well microtiter plates, which were pre-treated with goat anti-rabbit IgG (Pierce). The capture and detecting antibody pair that were used to detect Aβ 40 from cell supernatants were affinity purified pAb40 (Biosource) and biotinylated 6E10 (Signet Labs Inc.), respectively. The optimal concentration for the pAb40 antibody was 3 μg/ml in Superblock/TBS (Pierce) that was supplemented with 0.05% Tween 20 (Sigma).
Cellular supernatants were incubated with the capture antibody for 3 h at 4° C., followed by 3 wash steps in TBS-tween (0.05%). The detecting antibody incubation was for 2 h at 4° C., again followed by the wash steps as described previously. The final readout of the ELISA is Time-Resolved Fluorescence (counts per minute) using Delfia reagents Streptavidin-Europium and Enhancement solutions (Perkin Elmer) and the Victor 2 multilabel counter (Perkin Elmer).

[3] = Homo sapiens, HEK293, average IC50
[4] = Homo sapiens, HEK293, average IC50, HEK cells

Chain of Beta Secretase enzyme (BACE) (P56817 46-501, species assumed): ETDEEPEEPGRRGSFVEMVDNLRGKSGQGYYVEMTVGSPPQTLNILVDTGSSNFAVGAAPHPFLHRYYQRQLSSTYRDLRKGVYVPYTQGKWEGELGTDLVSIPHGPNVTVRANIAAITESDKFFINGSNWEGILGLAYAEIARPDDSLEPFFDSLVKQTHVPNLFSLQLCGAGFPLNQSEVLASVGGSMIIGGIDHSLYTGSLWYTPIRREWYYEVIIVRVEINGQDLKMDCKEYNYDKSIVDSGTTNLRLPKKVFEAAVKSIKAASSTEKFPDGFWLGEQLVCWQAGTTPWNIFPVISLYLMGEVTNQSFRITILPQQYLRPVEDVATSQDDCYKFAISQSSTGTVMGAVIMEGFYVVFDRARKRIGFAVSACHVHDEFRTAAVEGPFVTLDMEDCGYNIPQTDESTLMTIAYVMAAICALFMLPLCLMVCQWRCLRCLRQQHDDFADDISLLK

| Compound | pIC50 [1] | pIC50 [2, 3] | pIC50 [2, 4] | pIC50 [2] |
| --- | --- | --- | --- | --- |
| C[C@@](C#Cc1cnc2c(c1)[C@]1(COC(N)=N1)c1cc(-c3cccnc3F)ccc1O2)(CO)CCl (single isomer, unassigned) [Example 1014] | 8.66 |  |  | 7.68 |
| COC[C@H]1SC(N)=NC12c1cc(-c3cccnc3F)ccc1Oc1cnc(-c3ccnc(F)c3)cc12 (single isomer, unassigned) [Example 1093, (4′S/R,5′S)-7-(2-fluoropyridin-3-yl)-3-(2-fluoropyridin-4-yl)-5′-(methoxymethyl)-5′H-spiro[chromeno[2,3-c]pyridine-5,4′-thiazol]-2′-amine] | 8.24 |  |  | 6.31 |
| COC[C@H]1SC(N)=NC12c1cc(-c3cccnc3F)ccc1Oc1cnc(-c3ccnc(F)c3)cc12 (single isomer, unassigned) [Example 1095, (4′S/R,5′S)-7-(2-fluoropyridin-3-yl)-3-(2-fluoropyridin-4-yl)-5′-(methoxymethyl)-5′H-spiro[chromeno[2,3-c]pyridine-5,4′-thiazol]-2′-amine] | 6.24 |  |  | 5.22 |
| CC1(COc2cnc3c(c2)C2(COC(N)=N2)c2cc(-c4cc(Cl)ccc4F)ccc2O3)OCCO1 (stereo not shown) [Example 87, 7-(5-chloro-2-fluorophenyl)-3-((2-methyl-1,3-dioxolan-2-yl)methoxy)-5′H-spiro[chromeno[2,3-b]pyridine-5,4′-oxazol]-2′-amine] | 8.08 | 6.97 |  |  |
| C[Si](C)(C)c1cc2c(nc1F)Oc1ccc(Br)cc1[C@@]21COC(N)=N1 [Example 90, (5S)-7-bromo-2-fluoro-3-(trimethylsilyl)spiro[chromeno[2,3-b]pyridine-5,4′-[1,3]oxazol]-2′-amine] | 6.06 | 5.00 |  |  |
| CC(C)(C#N)COc1cc(F)c2c(c1)[C@]1(COC(N)=N1)c1cc(-c3cnccn3)ccc1O2 [Example 93, (S)-3-(2-amino-5′-fluoro-2′-(pyrazin-2-yl)-5H-spiro[oxazole-4,9′-xanthene]-7′-yloxy)-2,2-dimethylpropanenitrile] | 8.55 | 7.84 |  |  |
| C[C@@H]1CN(c2cc(F)c3c(c2)[C@]2(COC(N)=N2)c2cc(-c4cnccn4)ccc2O3)C[C@H](C)O1 [Example 94, (S)-2′-((2R,6S)-2,6-dimethylmorpholino)-4′-fluoro-7′-(pyrazin-2-yl)-5H-spiro[oxazole-4,9′-xanthen]-2-amine] | 8.20 | 7.71 |  |  |
| CC(C)(O)CCc1ccc2c(c1)[C@]1(COC(N)=N1)c1cc(-c3cncnc3)c(F)cc1O2 [Example 96, (R)-4-(2-amino-3′-fluoro-2′-(pyrimidin-5-yl)-5H-spiro[oxazole-4,9′-xanthene]-7′-yl)-2-methylbutan-2-ol] | 7.97 | 7.64 |  |  |
| CCC(C)CSc1cnc2c(c1)[C@]1(COC(N)=N1)c1cc(-c3cccnc3)ccc1O2 (stereo partly drawn) [Example 99, (4′S)-3-(2-methylbutylthio)-7-(pyridin-3-yl)-5′H-spiro[chromeno[2,3-b]pyridine-5,4′-oxazol]-2′-amine] | 7.76 | 6.52 |  |  |
| NC1=N[C@@]2(CO1)c1cc(-c3cccnc3)ccc1Oc1c2cc(-c2cccnc2)[nH]c1=O [Example 107, (S)-2′-amino-3,7-di(pyridin-3-yl)-5′H-spiro[chromeno[2,3-c]pyridine-5,4′-oxazol]-1(2H)-one] | 8.11 |  | 6.74 |  |
| NC1=N[C@@]2(CC1(F)F)c1cc(-c3cccnc3)ccc1Oc1ncc(-c3cccnc3)cc12 [Example 112, (5S)-4′,4′-difluoro-3,7-di-3-pyridinyl-3′,4′-dihydrospiro[chromeno[2,3-b]pyridine-5,2′-pyrrol]-5′-amine] | 7.20 | 5.67 |  |  |
| Cc1cncc(-c2ccc3c(c2)[C@@]2(COC(N)=N2)c2cc(-c4ccnc(C#N)c4)ncc2O3)c1 [Example 141, 4-((5S)-2′-amino-7-(5-methyl-3-pyridinyl)spiro[chromeno[2,3-c]pyridine-5,4′-[1,3]oxazol]-3-yl)-2-pyridinecarbonitrile] | 7.76 | 6.95 |  |  |
| NC1=N[C@@]2(CO1)c1cc(-c3ccccc3)ccc1Oc1cnc(-c3ccccc3)cc12 [Example 142, (5S)-3,7-diphenylspiro[chromeno[2,3-c]pyridine-5,4′-[1,3]oxazol]-2′-amine] | 7.80 | 6.27 |  |  |

The next lines start with results.

| pIC50 [1] | pIC50 [2, 3] | pIC50 [2, 4] | Compound | pIC50 [2] |
| --- | --- | --- | --- | --- |
| 7.82 | 6.20 |  | NC1=N[C@]2(CO1)c1cc(-c3cccnc3)ccc1Oc1c2cc(C2=CCOCC2)c(F)c1F (single isomer, unassigned) [Example 1006] |  |
| 9.00 | 8.38 |  | CC(C)(O)CCc1cc(F)c2c(c1)[C@]1(COC(N)=N1)c1cc(-c3cccnc3F)ccc1O2 [Example 92, (S)-4-(2-amino-5′-fluoro-2′-(2-fluoropyridin-3-yl)-5H-spiro[oxazole-4,9′-xanthene]-7′-yl)-2-methylbutan-2-ol] |  |
| 8.70 |  | 8.34 | CC1(C#Cc2cnc3c(c2)C2(CSC(N)=N2)c2cc(-c4cccnc4F)ccc2O3)COC1 (stereo not shown) [Example 98] |  |
| 9.30 |  | 8.35 | CC1(CCc2cc(F)c3c(c2)[C@]2(COC(N)=N2)c2cc(-c4cccnc4F)ccc2O3)COC1 [Example 101, (S)-4′-fluoro-7′-(2-fluoropyridin-3-yl)-2′-(2-(3-methyloxetan-3-yl)ethyl)-5H-spiro[oxazole-4,9′-xanthen]-2-amine] |  |
| 8.96 |  | 7.58 | CC(C)(C)COc1cc2c(cn1)Oc1ccc(-c3cccnc3F)cc1C21COC(N)=N1 (stereo not shown) [Example 102, 7-(2-fluoropyridin-3-yl)-3-(neopentyloxy)-5′H-spiro[chromeno[2,3-c]pyridine-5,4′-oxazol]-2′-amine 2,2,2-trifluoroacetate] |  |
| 8.96 | 7.92 |  | CC1(C#Cc2cnc3c(c2)[C@]2(COC(N)=N2)c2cc(-c4cnccc4F)ccc2O3)COC1 [Example 104, (S)-7-(4-fluoropyridin-3-yl)-3-((3-methyloxetan-3-yl)ethynyl)-5′H-spiro[chromeno[2,3-b]pyridine-5,4′-oxazol]-2′-amine] |  |
| 8.46 |  | 7.84 | NC1=NC2(CO1)c1cc(-c3cccnc3F)ccc1Oc1c(F)cc(C3=CCOCC3)nc12 (stereo not shown) [Example 105, 2-(3,6-dihydro-2H-pyran-4-yl)-4-fluoro-8-(2-fluoropyridin-3-yl)-5′H-spiro[chromeno[3,2-b]pyridine-10,4′-oxazol]-2′-amine] |  |
| 9.30 | 8.40 |  | Cc1ccc(-c2cc(F)c3c(c2)[C@]2(COC(N)=N2)c2cc(-c4cccnc4F)ccc2O3)nn1 [Example 114, (S)-4′-fluoro-7′-(2-fluoropyridin-3-yl)-2′-(6-methylpyridazin-3-yl)-5H-spiro[oxazole-4,9′-xanthen]-2-amine] |  |
| 9.40 |  | 8.68 | NC1=N[C@@]2(CO1)c1cc(-c3cccnc3F)ccc1Oc1c2cc(C2=CCOCC2)nc1F [Example 130, (S)-3-(3,6-dihydro-2H-pyran-4-yl)-1-fluoro-7-(2-fluoropyridin-3-yl)-5′H-spiro[chromeno[2,3-c]pyridine-5,4′-oxazol]-2′-amine] |  |
| 8.96 | 8.03 |  | N#Cc1cccc(-c2ccc3c(c2)[C@@]2(COC(N)=N2)c2cc(C4=CCOCC4)ncc2O3)c1 [Example 143, 3-((5S)-2′-amino-3-(3,6-dihydro-2H-pyran-4-yl)spiro[chromeno[2,3-c]pyridine-5,4′-[1,3]oxazol]-7-yl)benzonitrile] |  |
